Each structure is given as a SMILES string. Where a name gives a salt, the structure may show the parent alone.

Holding throughout (type): physicochemical
Data set [1] is described as follows: Particle size distribution by laser diffraction. The source says:
The D10, D50, and D90 values are useful ways for indicating a particle size distribution. D90 is a size value where at least 90 percent of the particles have a size smaller than the stated value. Likewise D10 refers to 10 percent of the particles having a size smaller than the stated value. D50 refers to at least 50 percent of the particles having a size smaller than the stated value and D [4,3] value refers to a mean particle size. Methods for determining D10, D50, D90 and D [4,3] include those using laser light diffraction with equipment sold by Malvern Instruments ltd.
As used herein, “crystalline particles” means any combination of single crystals, aggregates and agglomerates. As used herein “Particle Size Distribution (P.S.D.)” means the cumulative volume size distribution of equivalent spherical diameters as determined by laser diffraction at 1 bar dispersive pressure in a SympatecHelos equipment. “Mean particle size distribution, i.e., d (0.5)” correspondingly, means the median of said particle size distribution.

The nature of data set [2]: Specific surface area by B.E.T. nitrogen absorption. The source says:
Specific surface area is defined in units of square meters per gram (m^2/g). It is usually measured by nitrogen absorption analysis. In this analysis, nitrogen is absorbed on the surface of the substance. The amount of the absorbed nitrogen (as measured during the absorption or the subsequent desorption process) is related to the surface area via a formula known as the B. ET. formula. BET Surface Area Analyser Model SAA-2000, specifically designed for BET_Surface Area Analysis.
The Specific Surface Area is expressed in meters square per gram of a sample. It is a measure of area covered by Nitrogen gas adsorbed in a mono-layer form.

A short description of another data set: Bulk and tapped density. The conditions noted are these: Example 5 product.
Data set [3] in a line: Solubility in organic solvents (statement).

As for `C[C@H](CSC(=O)c1ccccc1)C(=O)N1C[C@@H](Sc2ccccc2)C[C@H]1C(=O)O` [zofenopril calcium, (4S)-N-[3-(Benzoylsulfanyl)-2(S)-methylpropionyl]-4-(phenylsulfanyl)-L-proline calcium salt], in data set [1] (Example 5 product), the “Particle size distribution d 10” value was determined as 3.902 μ, the “Particle size distribution d 50” value stood at 12.088 μ and the “Particle size distribution d90” value stood at 33.858 μ. In data set [1] (crystal particles, description), the “Mean particle size distribution d (0.5)” value came out at 12.088 μm, the “Particle size distribution d (0.1)” value was determined as 3.902 μm and the “Particle size distribution d (0.9)” value stood at 33.858 μm. The “Specific surface area by B.E.T” value in data set [2] (Example 5 product) is listed as 14.13 m^2/g. Further, the “Specific surface area, as measured by B.E.T.” value in data set [2] (crystal particles, description) is on record as “about 14.13 m^2/gm”. Further, in the data set “Bulk and tapped density”, the “Bulk density (Tapped)” value worked out at 0.282 gm/ml and the “Bulk density (untapped)” value is reported as 0.201 gm/ml. In addition, the “Solubility in organic solvents” value in data set [3] was “insoluble”.

The values above are taken from US20110281928A1, “Process for the preparation of zofenopril and its pharmaceutically acceptable salts thereof” (GLENMARK GENERICS LTD, priority 2009, published 2011).
